This passage reports Ki and IC50 results from patent US12570648B2, “6,7-dihydro-5H-pyrido[2,3-c]pyridazine derivatives and related compounds as Bcl-xL protein inhibitors and pro-apoptotic agents for treating cancer” (LES LABORATOIRES SERVIER, priority 2019, dated 2026).

For test [1], the target named is His-His-(EK)-hsBCLXL(2-197)[N197C] (Homo sapiens (Human), UniProt Q07817, N197C). Put plainly: Fluorescence quenching assay. It counts as binding. As to conditions: 1 nM Cy5-labelled protein, 400 nM PUMA peptide, 2 hours at 23° C.; KI determined from IC50. The essentials: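 Ki values converted from IC50s, measured as fluorescence increase (Ex 620/Em 680 nm) after 2 h at 23° C. Compounds were titrated over 11 points against 1 nM Cy5-BCL-xL and 400 nM quencher-tagged PUMA peptide in pH 7.4 HEPES (10 mM), 150 mM NaCl, 0.05% Tween 20, 5% DMSO.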
Chain of His-His-(EK)-hsBCLXL(2-197)[N197C] (Q07817 2-197 N197C): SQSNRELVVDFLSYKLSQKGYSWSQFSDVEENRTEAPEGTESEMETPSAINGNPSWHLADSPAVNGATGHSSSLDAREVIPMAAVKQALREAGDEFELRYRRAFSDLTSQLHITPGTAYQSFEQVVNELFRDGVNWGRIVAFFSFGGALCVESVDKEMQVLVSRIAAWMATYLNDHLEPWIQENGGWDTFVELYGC

In another test the test system is MOLT-4 cells. As to the kind of experiment: MOLT-4 cell viability using MTT assay. As to conditions: 48 h exposure. It counts as cell-based. How it is done:
MTT colorimetric assay is based on the mitochondrial reduction of tetrazolium salt by living cells.
Cells were cultured at 37° C. in a humidified atmosphere containing 5% CO2. […] At the end of incubation time, 15 μL of MTT solution (5 mg/ml) were added per well and the cells were incubated for another 4 h. […] IC50s were calculated using standard four-parametric curve fitting.
In general terms: Formazan colour is commonly taken as a measure of viable cells.

As usually defined, the Ki is a dissociation constant, usually derived from enzyme kinetics or from competition with a known ligand. By IC50 is commonly meant the concentration needed to halve the response being measured. Higher therefore signals a need for much substance.

For the compound `Cc1c(Nc2nc3ccccc3s2)nnc2c1CCCN2c1nc(C(=O)O)c(CCCOc2ccc(C#CCN(C(C)C)C(C)C)cc2F)s1` [Example 86, 2-[3-(1,3-Benzothiazol-2-ylamino)-4-methyl-6,7-dihydro-5H-pyrido[2,3-c]pyridazin-8-yl]-5-[3-[4-[3-(diisopropylamino)prop-1-ynyl]-2-fluoro-phenoxy]propyl]thiazole-4-carboxylic acid], the Ki in test [1] is 0.019 nM. The IC50 in the test on MOLT-4 cells (Homo sapiens, MOLT-4, 48 h) turned out to be 1.5 nM.

Take `CCNC(C)(C)C#Cc1ccc(OCCCc2sc(N3CCCc4c3nnc(Nc3nc5ccccc5s3)c4C)nc2C(=O)O)c(F)c1` [Example 102, 2-{3-[(1,3-benzothiazol-2-yl)amino]-4-methyl-6,7-dihydropyrido[2,3-c]pyridazin-8(5H)-yl}-5-(3-{4-[3-(ethylamino)-3-methylbut-1-yn-1-yl]-2-fluorophenoxy}propyl)-1,3-thiazole-4-carboxylic acid]: the inhibition constant (Ki) in test [1] came to 0.0045 nM. The same compound returned an IC50 with MOLT-4 cells (Homo sapiens, MOLT-4, 48 h) of 0.268 nM.

For the compound `Cc1c(Nc2nc3ccccc3s2)nnc2c1CCCN2c1nc(C(=O)O)c(CCCOc2ccc(I)cc2F)s1` [Example 77, 2-[3-(1,3-Benzothiazol-2-ylamino)-4-methyl-6,7-dihydro-5H-pyrido[2,3-c]pyridazin-8-yl]-5-[3-(2-fluoro-4-iodo-phenoxy)propyl]thiazole-4-carboxylic acid], the Ki in test [1] stood at 0.17 nM. Also, the 50% inhibitory concentration (IC50) in the test with MOLT-4 cells (Homo sapiens, MOLT-4, 48 h) was determined as 226 nM.

Turning to `Cc1c(Nc2nc3ccccc3s2)nnc2c1CCCN2c1ccc(-c2cnn(CC34CC5(C)CC(C)(C3)CC(OCCN(C)CC[C@@H](O)CO)(C5)C4)c2C)c(C(=O)O)n1` [Example 130, 6-[3-(1,3-benzothiazol-2-ylamino)-4-methyl-6,7-dihydro-5H-pyrido[2,3-c]pyridazin-8-yl]-3-[1-[[3-[2-[[(3R)-3,4-dihydroxybutyl]-methyl-amino]ethoxy]-5,7-dimethyl-1-adamantyl]methyl]-5-methyl-pyrazol-4-yl]pyridine-2-carboxylic acid], in test [1], the Ki stood at 0.0023 nM. Besides, half-maximal inhibition in the test with MOLT-4 cells (Homo sapiens, MOLT-4, 48 h) (IC50) was put at 1.94 nM.

With `Cc1c(Nc2nc3ccccc3s2)nnc2c1CCCN2c1ccc(-c2cnn(CC34CC5(C)CC(C)(C3)CC(OCCNCC(CO)CO)(C5)C4)c2C)c(C(=O)O)n1` [Example 133, 6-[3-(1,3-benzothiazol-2-ylamino)-4-methyl-6,7-dihydro-5H-pyrido[2,3-c]pyridazin-8-yl]-3-[1-[[3-[2-[[3-hydroxy-2-(hydroxymethyl)propyl]amino]ethoxy]-5,7-dimethyl-1-adamantyl]methyl]-5-methyl-pyrazol-4-yl]pyridine-2-carboxylic acid], the Ki in test [1] was determined as 0.0021 nM. In addition, in the test on MOLT-4 cells (Homo sapiens, MOLT-4, 48 h), the IC50 is 1.68 nM.

As to `Cc1c(Nc2nc3ccccc3s2)nnc2c1CCCN2c1nc(C(=O)O)c(CCCOc2ccc(C#CCNCC[C@@H](O)CO)cc2F)s1` [Example 131, 2-[3-(1,3-benzothiazol-2-ylamino)-4-methyl-6,7-dihydro-5H-pyrido[2,3-c]pyridazin-8-yl]-5-[3-[4-[3-[[(3R)-3,4-dihydroxybutyl]amino]prop-1-ynyl]-2-fluoro-phenoxy]propyl]thiazole-4-carboxylic acid], the Ki in test [1] was determined as 0.0045 nM. The compound also displayed an IC50 with MOLT-4 cells (Homo sapiens, MOLT-4, 48 h) of 0.275 nM.

With `Cc1c(Nc2nc3ccccc3s2)nnc2c1CCCN2c1ccc(-c2cnn(CC34CC5(C)CC(C)(C3)CC(OCCNCCC(O)CO)(C5)C4)c2C)c(C(=O)O)n1` (stereo in doubt) [Example 92, 6-{3-[(1,3-benzothiazol-2-yl)amino]-4-methyl-6,7-dihydropyrido[2,3-c]pyridazin-8(5H)-yl}-3-(1-{[3-(2-{[(3S)-3,4-dihydroxybutyl]amino}ethoxy)-5,7-dimethyladamantan-1-yl]methyl}-5-methyl-1H-pyrazol-4-yl)pyridine-2-carboxylic acid], the Ki in test [1] worked out at 0.0017 nM. The compound also came in with an IC50 in the test with MOLT-4 cells of 4.58 nM.

Turning to `Cc1c(Nc2nc3ccccc3s2)nnc2c1CCCN2c1nc(C(=O)O)c(CCCOc2ccc(C#CCN(C)CC[C@H](O)CO)cc2F)s1` [Example 148, 2-[3-(1,3-benzothiazol-2-ylamino)-4-methyl-6,7-dihydro-5H-pyrido[2,3-c]pyridazin-8-yl]-5-[3-[4-[3-[[(3S)-3,4-dihydroxybutyl]-methyl-amino]prop-1-ynyl]-2-fluoro-phenoxy]propyl]thiazole-4-carboxylic acid], the Ki in test [1] came to 0.0059 nM. In the test on MOLT-4 cells (Homo sapiens, MOLT-4, 48 h), this compound displayed an IC50 of 0.277 nM.

Regarding `Cc1c(Nc2nc3cccc(F)c3s2)nnc2c1CCCN2c1ccc(-c2cnn(CC34CC5(C)CC(C)(C3)CC(OCCN3CCCC3)(C5)C4)c2C)c(C(=O)O)n1` [Example 178, 3-[1-[[3,5-dimethyl-7-(2-pyrrolidin-1-ylethoxy)-1-adamantyl]methyl]-5-methyl-pyrazol-4-yl]-6-[3-[(7-fluoro-1,3-benzothiazol-2-yl)amino]-4-methyl-6,7-dihydro-5H-pyrido[2,3-c]pyridazin-8-yl]pyridine-2-carboxylic acid], in test [1], the Ki was 0.0022 nM. In the test with MOLT-4 cells (Homo sapiens, MOLT-4, 48 h), this compound yielded a half-maximal inhibitory concentration (IC50) of 0.641 nM.

Take `Cc1c(Nc2nc3ccccc3s2)nnc2c1CCCN2c1ccc(-c2cnn(CC34CC5(C)CC(C)(C3)CC(OCCN3CCCCCC3)(C5)C4)c2C)c(C(=O)O)n1` [Example 145, 3-[1-[[3-[2-(azepan-1-yl)ethoxy]-5,7-dimethyl-1-adamantyl]methyl]-5-methyl-pyrazol-4-yl]-6-[3-(1,3-benzothiazol-2-ylamino)-4-methyl-6,7-dihydro-5H-pyrido[2,3-c]pyridazin-8-yl]pyridine-2-carboxylic acid]: in test [1], the Ki was 0.0018 nM. For the same compound, the IC50 in the test with MOLT-4 cells (Homo sapiens, MOLT-4, 48 h) was 0.265 nM.

For `Cc1c(Nc2nc3ccccc3s2)nnc2c1CCCN2c1nc(C(=O)O)c(CCCOc2ccc(C#CCN3C[C@@H](C)N[C@@H](C)C3)cc2F)s1` [Example 89, 2-[3-(1,3-Benzothiazol-2-ylamino)-4-methyl-6,7-dihydro-5H-pyrido[2,3-c]pyridazin-8-yl]-5-[3-[4-[3-[(3R,5S)-3,5-dimethylpiperazin-1-yl]prop-1-ynyl]-2-fluoro-phenoxy]propyl]thiazole-4-carboxylic acid], the Ki in test [1] worked out at 0.0028 nM. Also, the IC50 in the test with MOLT-4 cells (Homo sapiens, MOLT-4, 48 h) was determined as 0.57 nM.

Take `Cc1c(Nc2nc3ccccc3s2)nnc2c1CCCN2c1ccc(-c2cnn(CC34CC5(C)CC(C)(C3)CC(OCCN3CCCCC3)(C5)C4)c2C)c(C(=O)O)n1` [Example 143, 6-[3-(1,3-benzothiazol-2-ylamino)-4-methyl-6,7-dihydro-5H-pyrido[2,3-c]pyridazin-8-yl]-3-[1-[[3,5-dimethyl-7-[2-(1-piperidyl)ethoxy]-1-adamantyl]methyl]-5-methyl-pyrazol-4-yl]pyridine-2-carboxylic acid]: the Ki in test [1] was found to be 0.0014 nM. Besides, half-maximal inhibition in the test with MOLT-4 cells (Homo sapiens, MOLT-4, 48 h) (IC50) required 0.0546 nM.

On to `Cc1c(Nc2nc3ccccc3s2)nnc2c1CCCN2c1ccc(-c2cnn(CC34CC5(C)CC(C)(CC(CCCNCC[C@H](O)CO)(C5)C3)C4)c2C)c(C(=O)O)n1` [Example 172, 6-[3-(1,3-benzothiazol-2-ylamino)-4-methyl-6,7-dihydro-5H-pyrido[2,3-c]pyridazin-8-yl]-3-[1-[[3-[3-[[(3S)-3,4-dihydroxybutyl]amino]propyl]-5,7-dimethyl-1-adamantyl]methyl]-5-methyl-pyrazol-4-yl]pyridine-2-carboxylic acid], for which, in test [1], the Ki came to 0.002 nM. The IC50 in the test on MOLT-4 cells (Homo sapiens, MOLT-4, 48 h) worked out at 3.25 nM.

In the case of `CNC(C)(C)C#Cc1ccc(OCCCc2sc(N3CCCc4c3nnc(Nc3nc5ccccc5s3)c4C)nc2C(=O)O)c(F)c1` [Example 91, 2-[3-(1,3-Benzothiazol-2-ylamino)-4-methyl-6,7-dihydro-5H-pyrido[2,3-c]pyridazin-8-yl]-5-[3-[2-fluoro-4-[3-methyl-3-(methylamino)but-1-ynyl]phenoxy]propyl]thiazole-4-carboxylic acid], the Ki in test [1] was determined as 0.0057 nM. The IC50 with MOLT-4 cells (Homo sapiens, MOLT-4, 48 h) is 0.359 nM.

Regarding `Cc1c(Nc2nc3cccc(F)c3s2)nnc2c1CCCN2c1nc(C(=O)O)c(CCCOc2ccc(C#CCN(C)C)cc2F)s1` [Example 82, 5-[3-[4-[3-(Dimethylamino)prop-1-ynyl]-2-fluoro-phenoxy]propyl]-2-[3-[(7-fluoro-1,3-benzothiazol-2-yl)amino]-4-methyl-6,7-dihydro-5H-pyrido[2,3-c]pyridazin-8-yl]thiazole-4-carboxylic acid], the Ki in test [1] was 0.023 nM. This compound showed a half-inhibitory concentration (IC50) with MOLT-4 cells (Homo sapiens, MOLT-4, 48 h) of 1.21 nM.

Consider `Cc1c(Nc2nc3ccccc3s2)nnc2c1CCCN2c1ccc(-c2cnn(CC34CC5(C)CC(C)(C3)CC(OCCNCCOCCO)(C5)C4)c2C)c(C(=O)O)n1` [Example 136, 6-[3-(1,3-benzothiazol-2-ylamino)-4-methyl-6,7-dihydro-5H-pyrido[2,3-c]pyridazin-8-yl]-3-[1-[[3-[2-[2-(2-hydroxyethoxy)ethylamino]ethoxy]-5,7-dimethyl-1-adamantyl]methyl]-5-methyl-pyrazol-4-yl]pyridine-2-carboxylic acid], for which, in test [1], the Ki worked out at 0.0014 nM. The compound further registered an IC50 in the test on MOLT-4 cells (Homo sapiens, MOLT-4, 48 h) of 1.25 nM.

Consider `Cc1c(Nc2nc3ccccc3s2)nnc2c1CCCN2c1ccc(-c2cnn(CC34CC5(C)CC(C)(C3)CC(OCCN3CCOCC3)(C5)C4)c2C)c(C(=O)O)n1` [Example 142, 6-[3-(1,3-benzothiazol-2-ylamino)-4-methyl-6,7-dihydro-5H-pyrido[2,3-c]pyridazin-8-yl]-3-[1-[[3,5-dimethyl-7-(2-morpholinoethoxy)-1-adamantyl]methyl]-5-methyl-pyrazol-4-yl]pyridine-2-carboxylic acid], for which the Ki in test [1] came to 0.0026 nM. In the test on MOLT-4 cells (Homo sapiens, MOLT-4, 48 h), this compound displayed an IC50 of 0.0513 nM.
